Test results from the supplement of paper PMC10307832.

Key:
Assay in all cases: relative viability (nuclei count vs DMSO), 5 days (fraction); higher = more cells survive
[1] = system: NCI-H2347
Procedure, shortened: (§1)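 Relative viability divides the nuclei count in treated wells by that in vehicle wells. Lung cancer cell lines were seeded in 1536-well plates, dosed by pin tool the next day, and fixed and stained after 5 days in one step with final 0.05% Triton X-100, 1% formaldehyde and 1 ug/ml Hoechst. Dosing was a single drug or a fixed anchor-drug dose plus five library-drug doses (not always all listed) in √10 steps, and values are medians of duplicate plates imaged at 4×.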

[2] = system: NCI-H596
Procedure, shortened: as §1

[3] = system: HCC-78
Procedure, shortened: as §1

[4] = system: HCC-366
Procedure, shortened: as §1

[5] = system: ChaGo-K-1
Procedure, shortened: as §1

[6] = system: NCI-H1355
Procedure, shortened: as §1

[7] = system: NCI-H1734
Procedure, shortened: as §1

[8] = system: RERF-LC-KJ
Procedure, shortened: as §1

[9] = system: CAL-12T
Procedure, shortened: as §1

[10] = system: EMC-BAC-2
Procedure, shortened: as §1

[11] = system: NCI-H2085
Procedure, shortened: as §1

[12] = system: NCI-H2405
Procedure, shortened: as §1

With `O=c1[nH]c2ccccc2n1C1CCN(CCCC(c2ccc(F)cc2)c2ccc(F)cc2)CC1` [Pimozide] + CC1(C)CCC(c2ccc(Cl)cc2)=C(CN2CCN(c3ccc(C(=O)NS(=O)(=O)c4ccc(N[C@H](CCN5CCOCC5)CSc5ccccc5)c(S(=O)(=O)C(F)(F)F)c4)cc3)CC2)C1 [Navitoclax] (partner 0.5 µM) the relative viability ([1]; first compound 0.08 µM) was 0.799, the relative viability ([1]; first compound 0.253 µM) was 0.732 and the relative viability ([1]; first compound 0.8 µM) was 0.73. It also gave a relative viability ([1]; first compound 2.53 µM) of 0.683, a relative viability ([1]; first compound 8 µM) of 0.819 and a relative viability ([2]; first compound 0.08 µM) of 0.92. For the same compound, the relative viability ([2]; first compound 0.253 µM) was 0.963, the relative viability ([2]; first compound 0.8 µM) was 0.94 and the relative viability ([2]; first compound 2.53 µM) was 0.677. It also gave a relative viability ([2]; first compound 8 µM) of 0.9, a relative viability ([3]; first compound 0.08 µM) of 0.764 and a relative viability ([3]; first compound 0.253 µM) of 0.717. It also gave a relative viability ([3]; first compound 0.8 µM) of 0.893, a relative viability ([3]; first compound 2.53 µM) of 0.71 and a relative viability ([3]; first compound 8 µM) of 0.691. The relative viability ([4]; first compound 0.08 µM) was 1.01, the relative viability ([4]; first compound 0.253 µM) was 1.12 and the relative viability ([4]; first compound 0.8 µM) was 1.02. For the same compound, the relative viability ([4]; first compound 2.53 µM) was 0.986, the relative viability ([4]; first compound 8 µM) was 0.976 and the relative viability ([5]; first compound 0.08 µM) was 0.861. The relative viability ([5]; first compound 0.253 µM) was 0.935, the relative viability ([5]; first compound 0.8 µM) was 0.974 and the relative viability ([5]; first compound 2.53 µM) was 1.01. For the same compound, the relative viability ([5]; first compound 8 µM) was 0.941, the relative viability ([6]; first compound 0.08 µM) was 0.849 and the relative viability ([6]; first compound 0.253 µM) was 1.01. It also gave a relative viability ([6]; first compound 0.8 µM) of 0.908, a relative viability ([6]; first compound 2.53 µM) of 0.959 and a relative viability ([6]; first compound 8 µM) of 0.856. The relative viability ([7]; first compound 0.08 µM) was 0.894, the relative viability ([7]; first compound 0.253 µM) was 0.806 and the relative viability ([7]; first compound 0.8 µM) was 0.764. It also gave a relative viability ([7]; first compound 2.53 µM) of 0.83, a relative viability ([7]; first compound 8 µM) of 0.836 and a relative viability ([8]; first compound 0.08 µM) of 0.913. It also gave a relative viability ([8]; first compound 0.253 µM) of 0.855, a relative viability ([8]; first compound 0.8 µM) of 0.885 and a relative viability ([8]; first compound 2.53 µM) of 1.04. The relative viability ([8]; first compound 8 µM) was 0.92, the relative viability ([9]; first compound 0.08 µM) was 1.35 and the relative viability ([9]; first compound 0.253 µM) was 1.23. For the same compound, the relative viability ([9]; first compound 0.8 µM) was 1.23, the relative viability ([9]; first compound 2.53 µM) was 0.977 and the relative viability ([9]; first compound 8 µM) was 1.08. The relative viability ([10]; first compound 0.08 µM) was 1.09, the relative viability ([10]; first compound 0.253 µM) was 1.11 and the relative viability ([10]; first compound 0.8 µM) was 1.05. For the same compound, the relative viability ([10]; first compound 2.53 µM) was 1.06, the relative viability ([10]; first compound 8 µM) was 1.07 and the relative viability ([11]; first compound 0.08 µM) was 1.15. For the same compound, the relative viability ([11]; first compound 0.253 µM) was 1.15, the relative viability ([11]; first compound 0.8 µM) was 1.11 and the relative viability ([11]; first compound 2.53 µM) was 1.04. For the same compound, the relative viability ([11]; first compound 8 µM) was 1.06, the relative viability ([12]; first compound 0.08 µM) was 0.795 and the relative viability ([12]; first compound 0.253 µM) was 0.716.
